Data on six compounds can be found in ChEMBL document CHEMBL1201862, “PubChem BioAssay data set” (2004).

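These data come from cells grown in 96-well plates and exposed to compound for 48 hours at five concentrations. GI50 marks 50% less growth.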 Active and inactive are the calls of the source. No stated cut-off is given here; in the data, active = GI50 up to about 1.1 µM and inactive = higher.

Holding throughout (test): inhibition of tumour cell growth, NCI panel, 48 h
The subject of assay [1] is BT-549.
The test system of assay [2] is COLO 205.
The test system of assay [3] is DU-145.
The test system of assay [4] is HCT-15.
The subject of assay [5] is MCF7.
The test system of assay [6] is MDA-MB-231.
Assay [7] relates to NCI-H522.
The test system of assay [8] is NCI/ADR-RES.
In assay [9] the test system is SF-539.
Assay [10] relates to SK-MEL-28.
Assay [11] relates to SR.
Assay [12] has as its system SW-620.
In assay [13] the test system is TK-10.
The subject of assay [14] is HOP-62.

`CSc1c(C#N)c(O)n(-c2ccc(C)cc2)c(=O)c1C#N`: the GI50 in assay [1] was > 100 µM (inactive); in assay [2] it was > 100 µM (inactive); in [3], > 100 µM (inactive); in [4], above 100 µM; in [5], > 100 µM (inactive); in assay [6], > 100 µM (inactive). Further, the GI50 in assay [7], in assay [8], in [9], in assay [10], in assay [11] and in [12] was > 100 µM (inactive) throughout. Also, the GI50 in [13] is > 100 µM (inactive).

Turning to `O=C(CSCC(=O)N/N=C/c1ccncc1)N/N=C/c1ccncc1`, the GI50 is > 100 µM (inactive) in assay [1]; > 100 µM (inactive) in assay [3]; above 100 µM in [4]; > 100 µM (inactive) in [14]; > 100 µM (inactive) in [5]; > 100 µM (inactive) in assay [6]. For the same compound, the GI50 in assay [7], in assay [8], in [9], in assay [10], in assay [12] and in [13] was > 100 µM (inactive) throughout.

As to `Cc1ccc(OCC2OC(n3cnc4c(N(C)C)nc(Br)nc43)CC2Oc2ccc(C)cc2)cc1` (stereo unspecified), the GI50 is > 100 µM (inactive) in [1]; > 100 µM (inactive) in [2]; > 100 µM (inactive) in [3]; above 100 µM in assay [4]; > 100 µM (inactive) in assay [5]; > 100 µM (inactive) in [6]. Further, the GI50 in assay [7], in assay [8], in assay [9], in [10], in assay [12] and in assay [13] was > 100 µM (inactive) each time.

Regarding `O=C(NCCN(CCNC(=O)c1cccc(=O)n1O)CCN(CCNC(=O)c1cccc(=O)n1O)CCNC(=O)c1cccc(=O)n1O)c1cccc(=O)n1O`, the GI50 in [1] is > 100 µM (inactive); in assay [2], > 100 µM (inactive); in assay [3], > 100 µM (inactive); in assay [4], above 100 µM; in assay [14], > 100 µM (inactive); in assay [5] it was > 100 µM (inactive). In addition, the GI50 in assay [6], in assay [7], in assay [8], in [9], in [10] and in assay [12] was > 100 µM (inactive) in each case. Further, in assay [13], the GI50 was > 100 µM (inactive).

For the compound `CC(=O)Nc1c(S(=O)(=O)c2ccccc2)c(C)c(C)n1CCN(C)C`, the GI50 was > 100 µM (inactive) in [1]; > 100 µM (inactive) in assay [2]; > 100 µM (inactive) in [3]; above 100 µM in assay [4]; > 100 µM (inactive) in assay [5]; > 100 µM (inactive) in assay [6]. Besides, the GI50 in [7], in assay [8], in [9], in [10], in [11] and in assay [12] was > 100 µM (inactive) in each case. In addition, the GI50 in assay [13] is > 100 µM (inactive).

As to `Cc1ccc(S(=O)(=O)N2CCSCCSCCN(S(=O)(=O)c3ccc(C)cc3)CCN(S(=O)(=O)c3ccc(C)cc3)CC2)cc1`, the GI50 is > 100 µM (inactive) in assay [1]; > 100 µM (inactive) in assay [2]; > 100 µM (inactive) in assay [3]; above 100 µM in assay [4]; > 100 µM (inactive) in assay [14]; > 100 µM (inactive) in assay [5]. The GI50 in [6], in assay [7], in assay [8], in assay [9], in assay [10] and in assay [12] was > 100 µM (inactive) in each case. Moreover, in [13], the GI50 is > 100 µM (inactive).
